# B1: Wnt3a: Wnt3a added to the priming medium (protein, UniProt P56704 19-352, looked up)
# Protein Wnt-3a: SYPIWWSLAVGPQYSSLGSQPILCASIPGLVPKQLRFCRNYVEIMPSVAEGIKIGIQECQHQFRGRRWNCTTVHDSLAIFGPVLDKATRESAFVHAIASAGVAFAVTRSCAEGTAAICGCSSRHQGSPGKGWKWGGCSEDIEFGGMVSREFADARENRPDARSAMNRHNNEAGRQAIASHMHLKCKCHGLSGSCEVKTCWWSQPDFRAIGDFLKDKYDSASEMVVEKHRESRGWVETLRPRYTYFKVPTERDLVYYEASPNFCEPNPETGSFGTRDRTCNVSSHGIDGCDLLCCGRGHNARAERRREKCRCVFHWCCYVSCQECTRVYDVHTCK
# Assays:
# hESCs = assay: Direct comparison BIO versus CP21R7 to differentiate hESCs into CD144+ endothelial cells; format: cell-based, human
# Protocol: FIG. 6: Direct comparison BIO versus CP21R7 to differentiate hESCs into endothelial cells CD144+. hESCs have been differentiated in monolayer conditions in parallel using different concentrations at Day 1 (0 μM, 0.5 μM, 1 μM, 2 μM) for the BIO or for the COMPOUND 21 (CP21R7) as supplement to the carrier medium N2B27, followed at Day 4 with induction medium VEGF-A 50 ng/ml and Forskolin 5 μM for all the conditions.
# The method of Tatsumi et al employs the BIO inhibitor at different concentrations as supplement to the N2B27. Although Tatsumi et al. describes that the pluripotent stem cells were differentiated to endothelial cells with about 20% efficiency (determined by endothelial cells expressing the surface marker CD144), we were not able to reproduce such results.
# human PSCs = assay: Endothelial induction by GSK3 inhibitors, flow cytometric VE-Cadherin (CD144) expression on day 5; format: cell-based
# Protocol: (§1) The potential of the most widely used commercial GSK30 inhibitors and CP21R7 to activate β-catenin-mediated TCF/LEF transcription in human PA-1 reporter cells (DeAlmeida et al., 2007) was evaluated. […] Unmodified PA-1 cells are used to measure cellular viability via ATP levels and GLI-luciferase responsive reporter PA-1 cells as counter screen to monitor changes in general transcriptional activity. […] On the outcome of the β-Catenin reporter assay, three GSk3β inhibitors namely BIO, CHIR and CP were exploited for their potential to drive vascular lineage commitment of human PSCs. In addition to the listed inhibitors we include SB216763 (SB) due to its structure similarity to CP (see FIG. 18). Pluripotent stem cells were (i) plated as single-cells on mTeSR1 medium supplemented with Y-27632 a Rho-kinase inhibitor (Watanabe et al., 2007); (ii) incubated in priming medium (N2B27 medium supplemented with a GSK303 inhibitor) and (iii) incubated in induction medium (StemPro SFM 34 medium supplemented with Vascular Endothelial Growth Factor (VEGF; Sumi et al., 2008)) as outlined above under 1 (i) and (ii).
# The Following GSK3 Inhibitors were Used: CHIR99021 GSK3-Inhibitor: Catalogue Number: 361559 from Merck Millipore SB216763 GSK3-Inhibitor: Catalogue Number: 361566 from Merck Millipore BIO GSK3-Inhibitor: Catalogue Number: 3 361550 from Merck Millipore CP21R7: 3-(3-Amino-phenyl)-4-(1-methyl-1H-indol-3-yl)-pyrrole-2,5-dione (also referred to as “compound 21” herein; see e.g. L. Gong et al; Bioorganic & Medicinal Chemistry Letters 20 (2010), 1693-1696).
# Proliferation into vascular bed cells was detected on Day 5. Vascular identity is confirmed by the expression of vascular endothelial-cadherin (VE-Cadherin). The capability to induce vascular bed cells was determined by VE-Cadherin (CD144) expression on day 5 (FIG. 19). […] Remarkably, up to 35% of cells expressed CD144 at an optimal concentration of 1 μM from day five on. […] CHIR, which has a divergent chemical structure than CP induced CD144 expression also in a parabolic curve reaching an optimum at 6 μM. […] Although, SB and CP share the same chemical backbone, divergent moieties may influence the chemical properties, e.g. cellular permeability or solubility. In carrier treated cells no VE-CADHERIN expression was detected (FIG. 19).
# [1] = system: β-catenin-mediated TCF/LEF transcription; assay: TCF/LEF reporter assay in human PA-1 reporter cells; format: cell-based; details: for dose-response activation curve: dose-response assay
# Protocol: FIG. 19: Compound selection. TCF/LEF reporter assay in human PA-1 reporter cells (DeAlmeida et al., 2007). After the treatment of reporter cells with GSk3 inhibitors at indicated concentrations β-catenin-mediated TCF/LEF transcriptional activity was measured as luciferase activity. The Compound Cp21R7 induced highest luciferase activity at a concentration of 3 μM.
# as §1
# [2] = system: GLI-luciferase responsive reporter PA-1 cells; assay: GLI-luciferase responsive reporter PA-1 cells counter screen (general transcriptional activity); format: cell-based, human
# Protocol: as §1
# Unmodified PA-1 cells = assay: Cellular viability via ATP levels in unmodified PA-1 cells; format: cell-based, human
# Protocol: as §1
# [3] = system: human embryonic stem cell; details: 5 μM 3 days, then VEGF 2 days; Tatsumi et al.; cited from earlier work
# [4] = system: Human Embryonic Stem cells; assay: Quantification of CD144+ stem cell-derived endothelial cells by image based high content analysis
# Protocol: FIG. 2A: Quantification CD144+ Stem Cell-Derived Endothelial Cells by image based high content analysis (HCA). Human Embryonic Stem cells have been differentiated in monolayer conditions with different small molecules. Upper and middle panel: Day 1 priming medium with different compounds; Day 4 induction medium+VEGF-A 50 ng/ml. Carrier N2B27 alone (upper panel, left); Wnt3a 150 ng/ml added to the priming medium (upper panel, right); SB216763 6 μM added to the priming medium (middle panel, left), CHIR 9902 2 μM added to the priming medium (middle panel, right). Lower panels: Day 1 priming medium with 2 μM Compound 21 (CP21R7); Day 4 induction medium+VEGF-A 50 ng/ml (lower panel, left) and Day 4 induction medium+VEGF-A 50 ng/ml+Forskolin 5 μM (lower panel, right). DAPI (cell nuclei) CD144 (membrane staining).
# FIG. 2B: Quantification graph: Percent CD144+ positive cells.
# (§2) Before the enzymatic dissociation of hPSC colonies using StemPro Accutase (Invitrogen) cells are preincubated for one hour with 10 μM ROCK-Inhibitor Y27632. 35.000 single hPSCs per cm^2 are plated onto growth factor reduced Matrigel (BD bioscience) coated cell culture plates in TeSR2 medium supplemented with 10 μM ROCK-Inhibitor. On day1 attachment medium is exchanged to N2B27 (Gibco) medium supplemented with (a) 2 μM Compound 21 (CP21R7) or (b) 1 μM Compound 21 (CP21R7) and 25 ng/ml BMP4 (R&D Systems). Cells are cultivated for additional 3 days without media change.
# (§3) On day 4 priming medium is replaced with StemPro-34 SFM medium (Invitrogen) supplemented with (a) 50 ng/ml VEGF and 5 μM Forskolin or (b) 200 ng/ml VEGF and 2 μM Forskolin. On day 5 induction medium is withdrawn and cells are used for MACS separation of CD144+ cells.
# pluripotent stem cells [5] = assay: Flow cytometry of CD144+ endothelial cells after monolayer differentiation; format: cell-based, human
# Protocol: FIG. 3: Flow Cytometry analysis of the pluripotent stem cell-derived CD144+ endothelial cells. Endothelial cells differentiated in monolayer conditions (priming medium 2 μM CP21R7, induction medium VEGF-A 50 ng/ml and Forskolin 5 μM) were analyzed before and after MACS sorting for the CD144+ expression. Before MACS Sorting 32.5% CD144+ endothelial cells and after MACS sorting 96.5% CD144+ endothelial cells.
# as §2, §3
# PSCs [6] = assay: Immunostainings of differentiation markers over time; format: cell-based, human
# Excerpt: Immunostainings of SOX17, OCT4, T-BRACHYURY, PECAM-1 and VE-CADHERIN support the transcriptome data (Quantification shown in FIG. 9). The protein expression of the pan-mesodermal marker T-BRACHYURY confirms an intermediate PS-like cell stage. […] The vast majority of cells reached a T-BRACHYURY peak expression on day three. On day four the expression diminished and disappeared, thereby mimicking its specific embryonic expression pattern (Tam and Loebel, 2007). Loss of pluripotency was monitored by the time-dependent decline of OCT4 expression. […] Induction of endothelial cell identity was determined by the co-expression of platelet-endothelial cell adhesion molecule-1 (PECAM1) and VE-CADHERIN. Endothelial marker expression was detected upon administration of VEGF on day 4 (FIG. 9). […] Our differentiation system enables high throughput derivation of endothelial cells within 5 days through a transient emergence of primitive streak cells.
# PSCs [7] = assay: Genome-wide gene expression analysis during differentiation; format: cell-based, human
# pluripotent stem cells [8] = assay: VSMC induction, flow cytometric CD31/CD140b distribution; format: cell-based, human; details: induction medium replaced by RPMI medium with 0.5 μM IWR
# Excerpt: Cell types differed by morphology as well as by marker expression. Cobblestone-like cells with tight cell-cell contacts expressed the endothelial-specific marker VE-Cadherin. Flattened and spindle-like shaped cells stained positive for Smooth Muscle Actin (αSMA), indicating a vascular smooth muscle cell (VSMC) identity. In flow cytometric analysis cells separated into a major fraction of CD31^+/CD140^+ cells and minor fraction of CD31^−/CD140b^+ cells (FIG. 10).
# SC-derived ECs = assay: Tube formation assay of SC-derived ECs on Matrigel matrix; format: cell-based, human; details: data not shown
# Protocol: In order to define the endothelial phenotype more profoundly, the angiogenic potential, the ability to uptake DiI-acetylated low-density lipoprotein (DiI-ac-LDL) was assessed and the dynamic modulation of the barrier function was monitored. For tube formation assays SC-derived ECs were seeded onto a Matrigel matrix.
molecule,measurement,setting,value
"O=C1Nc2cc(Br)ccc2/C1=C1/Nc2ccccc2/C1=N\O [BIO, (2′Z, 3′E)-6-bromoindirubin-3′-oxime]",maximum expression of the CD144,"hESCs; 0.5 μM at Day 1 in N2B27, induction medium VEGF-A 50 ng/ml and Forskolin 5 μM",5%
same,cytotoxicity,hESCs; already at concentrations of 1 μM,strong cytotoxicity
same,toxicity to the cells,"hESCs; the other concentrations (1 μM, 2 μM)",toxic to the cells
same,toxicity on single cells,human PSCs; data not shown,toxic on single cells
same,dose-response activation curve,[1],steep activation curve
same,GLI-mediated luciferase activity,[2]; data not shown,three-fold increase
same,toxicity,"Unmodified PA-1 cells; concentration of 10 μM, data not shown",highly toxic
same,efficiency determined by endothelial cells expressing the surface marker CD144,[3],about 20%
"Cn1cc(C2=C(c3cccc(N)c3)C(=O)NC2=O)c2ccccc21 [CP21R7, 3-(3-Amino-phenyl)-4-(1-methyl-1H-indol-3-yl)-pyrrole-2,5-dione]",CD144+ cells,"[4]; 2 μM added to the priming medium, day 4 induction medium + VEGF-A 50 ng/ml",40.2%
same,CD144+ cells,"[4]; 2 μM added to the priming medium, induction medium + VEGF-A 50 ng/ml + Forskolin 5 μM",54.6%
same,CD144 expression,"hESCs; dose response 0.5 μM, 1 μM, 2 μM, induction VEGF-A 50 ng/ml and Forskolin 5 μM",up to 35%
same,optimal concentration for CD144 expression,"human PSCs; bell-shaped / parabolic curve, day 5",1 µM
same,cells expressed CD144,"human PSCs; optimal concentration of 1 μM, from day five on",up to 35%
same,maximum increased luciferase activity,[1]; at 3 μM,566 fold
same,concentration of highest luciferase activity,[1]; bell-shaped curve,3 µM
same,dose-response activation curve,[1],steep activation curve
same,general transcriptional activity,[2],minor increases of general transcriptional activity
same,cell proliferation,Unmodified PA-1 cells; at maximum luciferase activity,only a modest gain of cell proliferation
same,"CD144 expression, cells on day six","pluripotent stem cells [5]; priming 1 μM CP with 25 ng/ml BMP4, induction 200 ng/ml VEGF with 2 μM Forskolin",up to 85%
same,CD144+ endothelial cells before MACS sorting,"pluripotent stem cells [5]; priming medium 2 μM CP21R7, induction medium VEGF-A 50 ng/ml and Forskolin 5 μM",32.5%
same,SOX17+ cells,"PSCs [6]; CP21 alone, day three",salt and pepper staining pattern of SOX17^+ cells
same,SOX17+ cells,PSCs [6]; combined application of CP and BMP4,prevented the appearance of endodermal SOX17^+ cells
same,T-BRACHYURY expression,PSCs [6]; treatment with CP and BMP4,induced T-BRACHYURY expression quickly after one day
same,"mesoderm markers MIXL1, T/BRACHYURY, FGF4 and EOMES",PSCs [7]; 24 hours upon combined CP and BMP4 treatment,Upregulation
same,"pluripotency markers NANOG, UIF1 and SOX2","PSCs [7]; 24 hours upon combined CP and BMP4 treatment, data not shown",downregulated
O=C(Nc1cccc2cccnc12)c1ccc(N2C(=O)[C@@H]3[C@H](C2=O)[C@@H]2C=C[C@H]3C2)cc1 [IWR],distribution of CD31+/CD140b− and CD31−/CD140b+ cells,pluripotent stem cells [8],inverted distribution
"Cn1cc(C2=C(c3ccc(Cl)cc3Cl)C(=O)NC2=O)c2ccccc21 [SB216763, 3-(2,4-Dichlorophenyl)-4-(1-methyl-1H-indol-3-yl)-1H-pyrrole-2,5-dione, reference compound]",CD144+ cells,"[4]; 6 μM added to the priming medium, day 4 induction medium + VEGF-A 50 ng/ml",0.5%
same,CD144 expression,"human PSCs; day 5, flow cytometry",no CD144 expression was observed
same,TCF/LEF luciferase expression,[1]; concentration dependent administration,negligible
C[S+]([O-])CCCCN=C=S (centres unmarked) [Sulforaphane],"tube formation, number of nodes, length of tubes",SC-derived ECs,perturbed tube formation and reduced the number of nodes as well as the length of tubes
VEGF,"upregulation of endothelial markers CD34, PECAM1, CDH5 and vWF","PSCs [7]; within the first 24 hours upon VEGF, data not shown",more than 100 fold
B1,CD144+ cells,"[4]; 150 ng/ml added to the priming medium, day 4 induction medium + VEGF-A 50 ng/ml",0.8%
